Experimental data: ChEMBL document CHEMBL3431459, “Roche carnitine palmitoyltransferase modulator screening data (supplementary data associated with the publication CHEMBL2216752)”
≈ marks a conversion by molar mass, not a printed value.

Key:
[1] = target: T1, Carnitine O-palmitoyltransferase 2, mitochondrial (Homo sapiens, UniProt P23786); test: (§1) SUPPLEMENTARY: Inhibition of Carnitine palmitoyltransferase 2
T1 sequence (P23786 whole entry): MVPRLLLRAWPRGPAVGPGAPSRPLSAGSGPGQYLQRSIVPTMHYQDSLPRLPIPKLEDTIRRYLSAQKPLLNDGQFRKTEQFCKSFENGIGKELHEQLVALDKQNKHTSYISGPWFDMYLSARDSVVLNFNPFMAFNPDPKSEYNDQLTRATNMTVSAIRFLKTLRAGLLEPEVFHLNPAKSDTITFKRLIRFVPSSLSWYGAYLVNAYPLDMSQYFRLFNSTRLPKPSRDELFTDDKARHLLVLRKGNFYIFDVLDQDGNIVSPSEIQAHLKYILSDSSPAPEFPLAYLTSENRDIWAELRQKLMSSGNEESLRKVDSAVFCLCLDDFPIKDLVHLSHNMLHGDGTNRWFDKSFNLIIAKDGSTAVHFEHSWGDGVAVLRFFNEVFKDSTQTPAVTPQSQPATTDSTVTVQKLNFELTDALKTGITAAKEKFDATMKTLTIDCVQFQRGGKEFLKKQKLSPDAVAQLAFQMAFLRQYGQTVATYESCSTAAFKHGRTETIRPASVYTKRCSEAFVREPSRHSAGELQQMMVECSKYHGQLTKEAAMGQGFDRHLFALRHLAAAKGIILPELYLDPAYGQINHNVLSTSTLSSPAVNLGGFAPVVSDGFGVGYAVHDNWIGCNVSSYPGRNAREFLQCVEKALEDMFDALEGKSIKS

[2] = target: T2, Carnitine O-palmitoyltransferase 2, mitochondrial (Rattus norvegicus, UniProt P18886); test: as §1
T2 sequence (P18886 whole entry): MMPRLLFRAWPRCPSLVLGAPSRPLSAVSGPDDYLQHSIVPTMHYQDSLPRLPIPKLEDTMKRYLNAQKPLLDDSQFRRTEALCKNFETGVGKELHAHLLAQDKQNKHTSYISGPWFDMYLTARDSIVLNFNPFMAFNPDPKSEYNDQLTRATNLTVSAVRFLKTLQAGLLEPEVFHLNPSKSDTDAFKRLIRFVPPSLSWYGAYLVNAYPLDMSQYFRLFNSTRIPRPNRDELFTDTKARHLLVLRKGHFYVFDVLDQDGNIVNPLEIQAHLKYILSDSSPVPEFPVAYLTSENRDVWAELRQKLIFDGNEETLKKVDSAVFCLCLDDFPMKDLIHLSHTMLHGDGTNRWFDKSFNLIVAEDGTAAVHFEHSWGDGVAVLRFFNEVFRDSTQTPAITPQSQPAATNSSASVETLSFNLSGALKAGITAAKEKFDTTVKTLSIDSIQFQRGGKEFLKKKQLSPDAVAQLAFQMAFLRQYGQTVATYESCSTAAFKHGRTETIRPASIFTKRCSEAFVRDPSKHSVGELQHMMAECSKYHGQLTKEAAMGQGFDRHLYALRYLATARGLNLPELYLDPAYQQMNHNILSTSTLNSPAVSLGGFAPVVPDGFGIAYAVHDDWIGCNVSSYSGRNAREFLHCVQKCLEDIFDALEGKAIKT

[3] = SUPPLEMENTARY: PAMPA permeability assay; assay type: physicochemical; conditions: read-out: Permeability
[4] = SUPPLEMENTARY: Lyophilisation Solubility Assay (LYSA); assay type: physicochemical; conditions: read-out: Kinetic_solubility
[5] = SUPPLEMENTARY: Lipophilicity (log D) Determination by high-throughput shake-flask; assay type: physicochemical; conditions: octanol/water
[6] = target: T3, Carnitine O-palmitoyltransferase 1, liver isoform (Rattus norvegicus, UniProt P32198); test: (§2) SUPPLEMENTARY: Inhibition of Carnitine palmitoyltransferase 1, liver isoform
T3 sequence (P32198 whole entry): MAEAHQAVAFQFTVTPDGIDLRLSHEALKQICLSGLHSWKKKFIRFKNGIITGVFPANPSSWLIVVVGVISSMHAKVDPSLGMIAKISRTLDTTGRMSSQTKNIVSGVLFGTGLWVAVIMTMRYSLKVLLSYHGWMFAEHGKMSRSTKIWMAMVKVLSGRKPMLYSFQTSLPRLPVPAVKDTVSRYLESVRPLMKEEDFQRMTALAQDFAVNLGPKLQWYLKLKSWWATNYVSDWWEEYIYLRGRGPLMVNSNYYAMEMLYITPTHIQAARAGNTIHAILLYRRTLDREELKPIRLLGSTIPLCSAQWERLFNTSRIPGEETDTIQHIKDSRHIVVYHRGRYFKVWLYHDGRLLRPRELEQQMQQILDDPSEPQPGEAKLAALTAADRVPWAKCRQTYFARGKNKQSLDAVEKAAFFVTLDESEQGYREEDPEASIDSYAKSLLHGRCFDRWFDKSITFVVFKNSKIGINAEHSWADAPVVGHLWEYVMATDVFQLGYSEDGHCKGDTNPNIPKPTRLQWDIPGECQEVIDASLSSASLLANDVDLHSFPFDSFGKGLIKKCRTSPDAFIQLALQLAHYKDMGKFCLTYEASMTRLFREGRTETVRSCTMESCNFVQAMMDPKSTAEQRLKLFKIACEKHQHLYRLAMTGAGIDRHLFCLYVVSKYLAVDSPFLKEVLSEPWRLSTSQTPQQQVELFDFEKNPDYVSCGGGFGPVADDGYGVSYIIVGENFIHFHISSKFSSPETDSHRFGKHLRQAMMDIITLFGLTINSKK

[7] = target: T4, Carnitine O-palmitoyltransferase 1, liver isoform (Homo sapiens, UniProt P50416); test: as §2
T4 sequence (P50416 whole entry): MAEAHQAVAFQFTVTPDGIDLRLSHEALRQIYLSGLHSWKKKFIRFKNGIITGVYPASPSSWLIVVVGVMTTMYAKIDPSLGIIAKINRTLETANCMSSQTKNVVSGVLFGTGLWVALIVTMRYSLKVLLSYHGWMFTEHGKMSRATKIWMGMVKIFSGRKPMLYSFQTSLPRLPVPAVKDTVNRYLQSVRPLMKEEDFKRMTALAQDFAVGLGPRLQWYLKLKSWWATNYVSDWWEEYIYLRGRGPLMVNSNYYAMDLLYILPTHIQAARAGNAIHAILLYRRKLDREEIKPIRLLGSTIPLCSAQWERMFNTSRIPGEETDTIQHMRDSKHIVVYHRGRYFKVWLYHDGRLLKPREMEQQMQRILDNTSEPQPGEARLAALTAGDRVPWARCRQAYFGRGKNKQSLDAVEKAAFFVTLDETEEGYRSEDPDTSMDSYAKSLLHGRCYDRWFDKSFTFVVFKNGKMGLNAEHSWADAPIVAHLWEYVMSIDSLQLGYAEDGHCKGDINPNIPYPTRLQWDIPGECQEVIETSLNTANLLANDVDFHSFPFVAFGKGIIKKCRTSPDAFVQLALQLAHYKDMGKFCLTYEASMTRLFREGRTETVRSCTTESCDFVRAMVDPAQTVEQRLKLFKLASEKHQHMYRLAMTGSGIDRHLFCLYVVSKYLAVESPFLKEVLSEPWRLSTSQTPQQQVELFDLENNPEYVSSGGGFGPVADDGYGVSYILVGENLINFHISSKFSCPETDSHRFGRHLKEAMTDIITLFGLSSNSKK

[8] = target: T5, Carnitine O-palmitoyltransferase 1, muscle isoform (Homo sapiens, UniProt Q92523); test: SUPPLEMENTARY: Inhibition of Carnitine palmitoyltransferase 1, muscle isoform; parameters: species or system Muscle tissue
T5 sequence (Q92523 whole entry): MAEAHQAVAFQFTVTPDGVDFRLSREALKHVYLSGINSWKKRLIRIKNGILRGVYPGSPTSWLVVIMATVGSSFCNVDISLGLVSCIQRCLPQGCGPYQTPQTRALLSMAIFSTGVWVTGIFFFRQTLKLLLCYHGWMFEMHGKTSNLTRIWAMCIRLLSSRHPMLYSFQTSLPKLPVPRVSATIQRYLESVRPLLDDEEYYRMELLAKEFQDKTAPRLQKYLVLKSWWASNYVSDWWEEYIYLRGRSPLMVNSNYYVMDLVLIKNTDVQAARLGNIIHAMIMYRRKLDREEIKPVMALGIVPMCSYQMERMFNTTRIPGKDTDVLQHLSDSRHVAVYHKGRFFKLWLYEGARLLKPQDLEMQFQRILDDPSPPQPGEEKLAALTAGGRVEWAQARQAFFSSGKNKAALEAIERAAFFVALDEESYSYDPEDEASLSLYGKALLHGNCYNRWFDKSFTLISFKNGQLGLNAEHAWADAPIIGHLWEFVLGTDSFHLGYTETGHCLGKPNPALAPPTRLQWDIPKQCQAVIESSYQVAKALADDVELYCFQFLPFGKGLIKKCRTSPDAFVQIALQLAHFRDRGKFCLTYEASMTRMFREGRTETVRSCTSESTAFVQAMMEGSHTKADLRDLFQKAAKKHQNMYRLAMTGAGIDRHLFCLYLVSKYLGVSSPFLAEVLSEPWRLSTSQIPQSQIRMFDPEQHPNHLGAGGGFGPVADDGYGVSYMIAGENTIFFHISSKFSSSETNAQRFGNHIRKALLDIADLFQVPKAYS

IC50 [1] [nM]	IC50 [2] [nM]	Papp [3] [×10⁻⁶ cm/s]	solubility kinetic [4] [µg/mL]	logD [5]	IC50 [6] [nM]	IC50 [7] [nM]	IC50 [8] [nM]	SMILES
> 100000	> 100000	3.08	> 631	0.14	55.2	56.1	1080	Cc1cccc(S(=O)(=O)N2CCOc3ccc(C(=O)Nc4nc(CC(=O)O)cs4)cc32)c1
> 100000	> 100000	1.31	7 (≈ 13.4 µM)	-0.47	82.9	54	1380	COc1ccc(Cl)cc1S(=O)(=O)N1COCc2ccc(C(=O)Nc3nc(CC(=O)O)cs3)cc21
41600	> 100000	0.23	58 (≈ 112 µM)	0.07	162	112	6420	COc1ccc(Cl)cc1S(=O)(=O)N1CCNc2ccc(C(=O)Nc3ccc(C(=O)O)c(F)c3)cc21
22800	> 100000	1.77	94 (≈ 200 µM)	2.44	160	65.4	> 100000	CS(=O)(=O)NCc1cccc(-c2nc([C@H]3CCCCN3C(=O)COc3ccccc3)no2)c1
> 100000	> 100000	4.32	181 (≈ 414 µM)	2.5	312	332	> 100000	CC(=O)Nc1ccc(F)c(-c2n[nH]c([C@H]3CCCCN3C(=O)COc3ccccc3)n2)c1
61400	57900	1.63	33 (≈ 74.6 µM)	2.17	205	87	> 100000	NS(=O)(=O)c1cccc(-c2noc([C@H]3CCCCN3C(=O)COc3ccccc3)n2)c1
> 100000	> 100000	2.8	19 (≈ 46.9 µM)	2.62	339	89.3	> 100000	O=C(COc1ccccc1)N1CCOC[C@@H]1c1nc(-c2ccc3[nH]cnc3c2)no1
> 100000	> 100000	0.26	< 1	3.3	112	111	82200	COc1ccc(Cl)cc1S(=O)(=O)N1CCc2ccc(C#Cc3ccc(C(=O)O)cc3)cc21
> 100000	> 100000	3.4	102 (≈ 184 µM)	2.65	85.9	96.3	1130	CCN(c1cc(C(=O)Nc2nc(CC(=O)O)cs2)cc2c1OCO2)S(=O)(=O)c1cc(Cl)ccc1OC
6260	7630	6.44	46 (≈ 110 µM)	2.53	93.1	99.8	7620	O=C(COc1ccccc1)N1CCCC[C@@H]1c1noc(-c2cccc3[nH][nH]c(=O)c23)n1
> 100000	> 100000	0.09	> 675	1.27	171	213	9890	COc1ccc(Cl)cc1S(=O)(=O)N1CCOc2ccc(C(=O)Nc3ccn(CC(=O)O)n3)cc21
> 100000	> 100000	4.09	532 (≈ 1060 µM)	0.33	32.3	97.4	2130	COc1ccc(Cl)cc1S(=O)(=O)N1CCc2ccc(C(=O)Nc3ccc(CC(=O)O)cc3)cc21
15000	66800	3.03	60 (≈ 149 µM)	2.26	234	29.2	33100	O=C(COc1ccccc1)N1CCCC[C@@H]1c1noc(-c2ccc3[nH]cnc3c2)n1

SMILES	IC50 [1] [nM]	IC50 [2] [nM]	Papp [3] [×10⁻⁶ cm/s]	solubility kinetic [4] [µg/mL]	logD [5]	IC50 [6] [nM]	IC50 [7] [nM]	IC50 [8] [nM]
CN1CCN(C(=O)COc2ccccc2)[C@@H](c2nc(-c3ccc4c(c3)CC(=O)N4)no2)C1	16500	35000	3.38	73 (≈ 168 µM)	1.91	305	137	> 100000
